“Also recorded” adds a separate entry of the source. Where two headings read alike, the source gives them in different places.
Columns and labels:
Cryptosporidium parvum = experiment: In vitro anti-Cryptosporidium effect in HCT-8 cells (immunofluorescence assay); assay type: cell-based; conditions: for IC50: Cryptosporidium parvum, HCT-8 cells
Experimental: In vitro testing of the anti-Cryptosporidium effect of CpLDH inhibitors. HCT-8 cells were cultured in supplemented RPMI-1640 medium in 96-well plates. When the cells were confluent, old medium was replaced with fresh medium. To one set of wells, varying concentrations of recombinant CpLDH inhibitors (reconstituted in DMSO and diluted in RPMI medium) were added, while another set was left without inhibitors. Paromomycin was used as a positive control drug reconstituted in distilled sterile water. Then, 4×10^4 freshly excysted sporozoites were added to each well and incubated at 37° C. with 5% CO2. After 2 h incubation, varying concentrations of CpLDH inhibitors were added to the set of infected cells that were not treated initially. Control infected cells without inhibitors, but with added DMSO volumes equivalent to those used in the wells with inhibitors, were included. The cells were maintained in culture for a total of either 48 h or 72 h and processed for immunofluorescence assay as previously described (Int. J. Parasitol. 2017; 47(13), 867-874). Briefly, medium was decanted, and the cells fixed with methanol-acetic acid (9:1) for 2 minutes at room temperature. The cells were rehydrated and permeabilized by two successive washes with buffer (0.1% Triton X-100, 0.35 M NaCl, 0.13 M Tris-base, pH 7.6) and blocked with 5% normal goat serum, followed by staining with antibody to C. parvum (SporoGlo; Waterborn, Inc.) overnight at 4° C. The stained cells were washed twice with PBS, followed by water, and then imaged with an inverted fluorescence microscope. Fluorescence quantification was done using ImageJ version 1.37v software (NIH). Assays were performed in triplicate and repeated at least thrice.

Tolerability in mice = assay type: in vivo; conditions: B6.129S7-Ifng (gamma interferon knockout), mouse, in vivo, po, 7 days
Experimental: In vivo testing of the anti-Cryptosporidium effect of CpLDH inhibitors. Gamma interferon knockout mice (B6.129S7-Ifng), 8 weeks of age, were purchased from Charles River, USA. The care and use of the mice was done following the guidelines of protocol number 17024 approved by the University of Illinois at Urbana-Champaign, USA. The animals were allowed to acclimatize for 1 week before experiments commenced. Stock solutions of recombinant CpLDH inhibitors reconstituted in DMSO were diluted in sterile distilled water to reduce the final amount of DMSO in the solution to less than 1% (v/v) before administering them to mice. Prior to testing the anti-Cryptosporidium effect of the inhibitors in mice, the tolerability of each inhibitor was tested by oral gavage using varying dosages (100-2000 mg/kg body weight) of each inhibitor in groups of mice (three mice for each dose) daily for 7 days. Mice were observed daily for signs of toxicity including changes from normal physical activity, respiration, body temperature, feeding, posture, fur condition or occurrence of death. […] An equivalent volume of PBS containing a cocktail of penicillin (100 units/ml), streptomycin (100 μg/ml), chloramphenicol (34 μg/ml) and amphotericin (0.25 μg/ml) was added to the fecal samples and stored at 4° C. until use for quantification of C. parvum genomic DNA load. […]

C. parvum [1] = experiment: Real-time PCR quantification of C. parvum DNA in fecal samples of infected mice; assay type: in vivo, Cryptosporidium parvum; conditions: for fecal C. parvum DNA load: Table 6, infected mice, multiplier printed in next cell
Experimental: In vivo testing of the anti-Cryptosporidium effect of CpLDH inhibitors. Gamma interferon knockout mice (B6.129S7-Ifng), 8 weeks of age, were purchased from Charles River, USA. The care and use of the mice was done following the guidelines of protocol number 17024 approved by the University of Illinois at Urbana-Champaign, USA. The animals were allowed to acclimatize for 1 week before experiments commenced. Stock solutions of recombinant CpLDH inhibitors reconstituted in DMSO were diluted in sterile distilled water to reduce the final amount of DMSO in the solution to less than 1% (v/v) before administering them to mice. Prior to testing the anti-Cryptosporidium effect of the inhibitors in mice, the tolerability of each inhibitor was tested by oral gavage using varying dosages (100-2000 mg/kg body weight) of each inhibitor in groups of mice (three mice for each dose) daily for 7 days. Mice were observed daily for signs of toxicity including changes from normal physical activity, respiration, body temperature, feeding, posture, fur condition or occurrence of death. […] The subsequent dosages of NSC10447 used in the mice infection assays were 250, 500 and 1000 mg/kg mouse body weight, while the NSC158011 dosages used were 100, 200 and 400 mg/kg mouse body weight. Mice were allocated to groups as follows: “Infected plus inhibitor treatment”; “Infected minus inhibitor treatment”; “Uninfected minus inhibitor treatment” and “Infected plus paromomycin treatment”. Each group contained at least three mice. Each mouse in the infection groups received 5,000 C. parvum oocysts (resuspended in 50 μl of PBS) by oral gavage. Mice were housed individually in cages lined with sterile gauze as bedding. One day post-infection (PI), daily oral gavage administration of recombinant CpLDH inhibitor or paromomycin commenced and continued for a total of 7 days. Untreated mice received an equivalent volume of sterile distilled water (containing DMSO equivalent to the amount administered in the inhibitor-treated group) by oral gavage. Fecal pellets were collected daily from each cage and placed in individual sterile 15 ml conical tubes. An equivalent volume of PBS containing a cocktail of penicillin (100 units/ml), streptomycin (100 μg/ml), chloramphenicol (34 μg/ml) and amphotericin (0.25 μg/ml) was added to the fecal samples and stored at 4° C. until use for quantification of C. parvum genomic DNA load. Three independent replicate infection assays were performed. At 9 days PI, mice were euthanized and 5 cm of the distal small intestine resected 2 cm anterior to the cecum and immediately submerged in 4% buffered formalin. The intestinal tissues were submitted for histopathology to the Veterinary Diagnostic Laboratory at the University of Illinois at Urbana-Champaign. Briefly, intestinal tissues preserved in 4% buffered formalin were washed in 70% ethanol and embedded in 1% agar and then processed for paraffin embedding. For hematoxylin and eosin staining, five μm transverse and cross sections were cut and processed and stained following standard procedures of the Veterinary Diagnostic Laboratory. Sections were imaged using a Zeiss microscope and images captured with a color camera.
Quantification of C. parvum shed in mice feces. Genomic DNA was extracted from individual fecal samples collected from mice at different days as described above. For each sample, 220 mg of homogenized feces were used to extract genomic DNA using the QIAamp PowerFecal DNA Kit (Qiagen, USA) following the manufacturer's instructions. Quantification of the amount of C. parvum 18s rRNA gene (GenBank accession number AF164102) was performed essentially as described previously (Int. J. Parasitol. 2018; 48(8), 649-656). Briefly, primers were used to generate a 240 bp amplicon from C. parvum genomic DNA by conventional PCR. […]

C. parvum [2] = experiment: Histopathology of distal small intestine of C. parvum infected mice; assay type: in vivo, Cryptosporidium parvum; conditions: lower small intestine, H&E, NSC158011 400 mg/kg, NSC10447 250, 500 or 1000 mg/kg, paromomycin 100 mg/kg
Experimental: In vivo testing of the anti-Cryptosporidium effect of CpLDH inhibitors. Gamma interferon knockout mice (B6.129S7-Ifng), 8 weeks of age, were purchased from Charles River, USA. The care and use of the mice was done following the guidelines of protocol number 17024 approved by the University of Illinois at Urbana-Champaign, USA. The animals were allowed to acclimatize for 1 week before experiments commenced. Stock solutions of recombinant CpLDH inhibitors reconstituted in DMSO were diluted in sterile distilled water to reduce the final amount of DMSO in the solution to less than 1% (v/v) before administering them to mice. Prior to testing the anti-Cryptosporidium effect of the inhibitors in mice, the tolerability of each inhibitor was tested by oral gavage using varying dosages (100-2000 mg/kg body weight) of each inhibitor in groups of mice (three mice for each dose) daily for 7 days. Mice were observed daily for signs of toxicity including changes from normal physical activity, respiration, body temperature, feeding, posture, fur condition or occurrence of death. […] The subsequent dosages of NSC10447 used in the mice infection assays were 250, 500 and 1000 mg/kg mouse body weight, while the NSC158011 dosages used were 100, 200 and 400 mg/kg mouse body weight. Mice were allocated to groups as follows: “Infected plus inhibitor treatment”; “Infected minus inhibitor treatment”; “Uninfected minus inhibitor treatment” and “Infected plus paromomycin treatment”. Each group contained at least three mice. Each mouse in the infection groups received 5,000 C. parvum oocysts (resuspended in 50 μl of PBS) by oral gavage. Mice were housed individually in cages lined with sterile gauze as bedding. […] An equivalent volume of PBS containing a cocktail of penicillin (100 units/ml), streptomycin (100 μg/ml), chloramphenicol (34 μg/ml) and amphotericin (0.25 μg/ml) was added to the fecal samples and stored at 4° C. until use for quantification of C. parvum genomic DNA load. […]

O=C1c2ccccc2C(=O)c2c(O)c(O)cc(O)c21 [NSC10447]
effect on C. parvum proliferation in initial screen (Cryptosporidium parvum; 48 h post-infection, concentrations at least 50% lower than cytotoxicity IC50): significantly (P<0.05) inhibit C. parvum proliferation | IC50 (Cryptosporidium parvum; 48 h, compound added at the time of infection, read-out: IC50, inhibition of C. parvum growth at 48 h p.i.): 72.7 µM | IC50 (Cryptosporidium parvum; 72 h, compound added at the time of infection, read-out: IC50, inhibition of C. parvum growth at 72 h p.i.): 83.6 µM | IC50 (Cryptosporidium parvum; compound added 2 h post-infection, read-out: IC50, inhibition of C. parvum growth at 48 h p.i. (2 h)): 79.5 µM | IC50 (Cryptosporidium parvum; compound added 2 h post-infection, read-out: IC50, inhibition of C. parvum growth at 72 h p.i. (2 h)): 95.2 µM | highest tolerable dose (no toxicity signs) (Tolerability in mice): 1000 mg/kg | lower C. parvum DNA load in feces compared to infected untreated (C. parvum [1]; NSC10447 at 250, 500 and 1000 mg/kg, day 3 until day 8): at least 50% | fecal C. parvum DNA load (C. parvum [1]; NSC10447 250 mg/kg, DPI 1): 4.4 ± 0.5 ×10^−10 ng/μL | fecal C. parvum DNA load (C. parvum [1]; NSC10447 250 mg/kg, DPI 2): 7.3 ± 0.2 ×10^−10 ng/μL | fecal C. parvum DNA load (C. parvum [1]; NSC10447 250 mg/kg, DPI 3): 1.0 ± 0.1 ×10^−8 ng/μL | fecal C. parvum DNA load (C. parvum [1]; NSC10447 250 mg/kg, DPI 4): 1.2 ± 0.1 ×10^−7 ng/μL | fecal C. parvum DNA load (C. parvum [1]; NSC10447 250 mg/kg, DPI 5): 1.2 ± 0.1 ×10^−6 ng/μL | fecal C. parvum DNA load (C. parvum [1]; NSC10447 250 mg/kg, DPI 6): 4.8 ± 0.2 ×10^−6 ng/μL | fecal C. parvum DNA load (C. parvum [1]; NSC10447 250 mg/kg, DPI 7): 1.9 ± 0.2 ×10^−5 ng/μL | fecal C. parvum DNA load (C. parvum [1]; NSC10447 250 mg/kg, DPI 8): 4.7 ± 0.1 ×10^−5 ng/μL | fecal C. parvum DNA load (C. parvum [1]; NSC10447 500 mg/kg, DPI 1): 1.0 ± 0.5 ×10^−10 ng/μL | fecal C. parvum DNA load (C. parvum [1]; NSC10447 500 mg/kg, DPI 2): 9.4 ± 0.2 ×10^−10 ng/μL | fecal C. parvum DNA load (C. parvum [1]; NSC10447 500 mg/kg, DPI 3): 6.7 ± 0.6 ×10^−9 ng/μL | fecal C. parvum DNA load (C. parvum [1]; NSC10447 500 mg/kg, DPI 4): 1.4 ± 0.1 ×10^−7 ng/μL | fecal C. parvum DNA load (C. parvum [1]; NSC10447 500 mg/kg, DPI 5): 1.6 ± 0.1 ×10^−6 ng/μL | fecal C. parvum DNA load (C. parvum [1]; NSC10447 500 mg/kg, DPI 6): 5.9 ± 0.4 ×10^−6 ng/μL | fecal C. parvum DNA load (C. parvum [1]; NSC10447 500 mg/kg, DPI 7): 9.3 ± 0.2 ×10^−6 ng/μL | fecal C. parvum DNA load (C. parvum [1]; NSC10447 500 mg/kg, DPI 8): 3.0 ± 0.4 ×10^−5 ng/μL | fecal C. parvum DNA load (C. parvum [1]; NSC10447 1000 mg/kg, DPI 1): 1.2 ± 0.2 ×10^−9 ng/μL | fecal C. parvum DNA load (C. parvum [1]; NSC10447 1000 mg/kg, DPI 2): 3.0 ± 0.7 ×10^−9 ng/μL | fecal C. parvum DNA load (C. parvum [1]; NSC10447 1000 mg/kg, DPI 3): 6.4 ± 0.2 ×10^−9 ng/μL | fecal C. parvum DNA load (C. parvum [1]; NSC10447 1000 mg/kg, DPI 4): 1.1 ± 0.1 ×10^−7 ng/μL | fecal C. parvum DNA load (C. parvum [1]; NSC10447 1000 mg/kg, DPI 5): 1.3 ± 0.1 ×10^−6 ng/μL | fecal C. parvum DNA load (C. parvum [1]; NSC10447 1000 mg/kg, DPI 6): 5.6 ± 0.4 ×10^−6 ng/μL | fecal C. parvum DNA load (C. parvum [1]; NSC10447 1000 mg/kg, DPI 7): 6.3 ± 0.4 ×10^−6 ng/μL | fecal C. parvum DNA load (C. parvum [1]; NSC10447 1000 mg/kg, DPI 8): 1.2 ± 0.8 ×10^−6 ng/μL | histopathology of intestinal epithelium and villi (C. parvum [2]): prevented villous atrophy and maintained the integrity of the intestinal mucosa; also recorded: intact intestinal epithelium with prominent villi

Source: US20250387359A1, “COMPOUNDS AND METHODS FOR THE TREATMENT OF PARASITIC INFECTIONS” (THE BOARD OF TRUSTEES OF THE UNIVERSITY OF ILLINOIS, priority 2019, published 2025)
